Measurements as given in patent US20140242609A1, “Diagnosis and treatment of kidney stones, methods and compositions therefor” (Washington University, priority 2013, published 2014).
Entries after “also recorded” stand apart in the source; their conditions may differ.

Legend:
PTH = experiment: plasma PTH levels after NPS2143 or cinacalcet; format: in vivo, mouse; conditions: for Plasma PTH level, course: 8 hrs versus 2 hr; for PTH response: cyclosporine-A pre-treated
claudin-14 protein = experiment: claudin-14 immunostaining, tight junction localization in mouse kidney sections; format: in vivo; conditions: 30 mg/kg BW−1
Experimental: (§1) For viewing claudin localization in the kidney, fresh cryostat sections (10 μm) were fixed with cold methanol at −20° C., followed by blocking with PBS containing 10% FBS, incubation with primary antibody (1:300) and FITC-labeled secondary antibody (1:200). After washing with PBS, slides were mounted with Mowiol (Calbiochem). Epifluorescence images were taken with a Nikon 80i photomicroscope equipped with a DS-QilMc digital camera. All images were converted to TIFF format and arranged using Photoshop CS4 (Adobe).
as §1, with “DS-Qi1Mc” for “DS-QilMc”

pri-miR-9-2 = pri-miR-9-2 transcript levels in TALH of treated mouse kidneys (real-time PCR); format: in vivo; conditions: 30 mg/kg BW−1; 2 hrs or 8 hrs
Description: (§2) Total RNA including microRNA was extracted using Trizol (Invitrogen). Cellular mRNA was reverse transcribed using the Superscript-III kit (Invitrogen), followed by real-time PCR amplification using SYBR Green PCR Master Mix (Bio-Rad) and Eppendorf Realplex2S system. The design of claudin-14 primers was described above. The design of pri-miRNA primers was according to Ma et al., (2010). Results were expressed as 2^−ΔCt values with ΔCT=Ctgene−Ctβ-actin.
(§3) To measure the transcriptional level for microRNA gene in vivo in the kidney, the inventors designed primers (see Methods; Table 2) to amplify the pri-miRNA molecule, the original transcript for microRNA gene that had not yet been subjected to any nuclear or cellular processing. Because both miR-9 and miR-374 had broader localization profiles along the nephron, the inventors isolated the TALH tubular cells for pri-miRNA analyses from the mouse kidney described elsewhere in this study. WT mice (strain: C57BL/6) were treated with NPS2143 or cinacalcet as described for claudin-14 analyses and assayed for pri-miRNA levels in isolated TALH cells at 2 hrs and 8 hrs respectively. […] NPS2143 and cinacalcet also profoundly regulated pri-miR-374. […]
(§4) Total RNA including microRNA was extracted using Trizol (Invitrogen). […] Results were expressed as 2^−ΔCt values with ΔCT=Ctgene−Ctβ-actin.

[1] = 1 hr renal clearance measurements (FITC-inulin), plasma and urine electrolytes; format: in vivo, mouse
Experimental: (§5) The method for performing renal clearance measurements in the mouse has been described by Hou et al., (2007; 2009). Mice were anesthetized by i.p. injection of Inactin (Sigma; 100 mg/kg). The jugular vein was catheterized for i.v. infusion of 0.9% saline at 2 μL/min, with 1% FITC-inulin included in the infusate. After an equilibration period of 60 min, renal clearance measurements were carried out for a 60 min period. Urine was collected under mineral oil, and 30 μL blood sample was taken at hourly intervals. Urine and plasma Ca^2+ and Mg^2+ concentrations were measured by atomic flame absorption spectrophotometer (PerkinElmer). Urine and plasma FITC-inulin levels were measured in 100 mM HEPES buffer (pH7.0) with fluorescence spectrophotometer (BioTek). The fractional excretion of electrolytes was calculated using the following equation FEion=V×Uion/(GFR×Pion), where GFR was calculated according to the clearance rate of FITC-inulin (GFR=V×Uinulin/Pinulin).
as §5, with “Hou, J.,” for “Hou”, “2007 and Hou, J., et al., 2009.” for “(2007; 2009).”, “(Sigma:” for “(Sigma;”, “Ca^++” for “Ca^2+”, “Mg^++” for “Mg^2+”, “(PerkinEhner).” for “(PerkinElmer).”

pri-miR-9-3 = pri-miR-9-3 transcript levels in TALH of treated mouse kidneys (real-time PCR); format: in vivo; conditions: 30 mg/kg BW−1; 2 hrs or 8 hrs
Description: as §2, §3, §4

[2] = cited from earlier work
[3] = WT, at both 2 hrs and 8 hrs, 30 mg/kg BW−1, versus vehicle
[4] = WT + CsA (25 mg/kg BW−1 per day, 6 days), 2 hr, Veh = CsA alone
[5] = WT, 2 hr, single dose 30 mg/kg BW−1
[6] = WT, 2 hr, single dose 30 mg/kg BW−1, 30 mg/kg
[7] = WT, 2 hr, single dose 30 mg/kg BW−1, listed as NPS, 30 mg/kg
[8] = WT, 8 hr, single dose 30 mg/kg BW−1
[9] = claudin-14 KO, 2 hr, single dose 30 mg/kg BW−1
[10] = WT, 2 hr, single dose 30 mg/kg BW−1, listed as Cina, 30 mg/kg

Structure (SMILES) | Plasma PTH level, course (PTH; WT) | plasma PTH levels (PTH; [3]) | plasma PTH levels (PTH; claudin-14 KO animals, 2 hrs) | PTH response (PTH; 2 hrs) | claudin-14 staining in tight junctions of TALH tubules (claudin-14 protein) | pri-miR-9-2 level, change (pri-miR-9-2) | ECa [1, 4] | FECa (fractional excretion of Ca++) [1, 4] | FEMg (fractional excretion of Mg++) [1, 4] | PCa (plasma Ca++ concentration) [1, 4] | PMg (plasma Mg++ concentration) [1, 4] | ECa [1, 5] | EMg [1, 5] | FEMg (fractional excretion of Mg++) [1, 5] | PMg (plasma Mg++ concentration) [1, 5] | FECa (fractional excretion of Ca++) [1, 6] | PCa (plasma Ca++ concentration) [1, 6] | ECa [1, 8] | EMg [1, 8] | FECa (fractional excretion of Ca++) [1, 8] | also measured
CC(C)(Cc1ccc2ccccc2c1)NC[C@@H](O)COc1cccc(Cl)c1C#N [NPS2143] | started to return towards baseline | significantly affected | significant increases in plasma PTH levels | intact PTH response | reduced the staining signal for claudin-14 to punctate foci; also recorded: reduced the staining signal for claudin-14 to punctuate foci | Neither pri-miR-9-2 (FIG. 12B) nor pri-miR-9-3 level (FIG. 12C) was significantly altered; also recorded: Neither pri-miR-9-2 (FIG. 29B) nor pri-miR-9-3 level (FIG. 29C) was significantly altered | 0.38 ± 0.02 ug/hr · g | 0.95 ± 0.14% | 11.96 ± 2.27% | 10.50 ± 0.18 mg/dL | 1.67 ± 0.02 mg/dL | 0.06 ± 0.01 ug/hr · g | 1.04 ± 0.06 ug/hr · g | 7.59 ± 0.32 % | 2.74 ± 0.15 mg/dL | 0.09±0.01% | 11.15 ± 0.21 mg/dL | 0.25 ± 0.04 ug/hr · g | 1.41 ± 0.18 ug/hr · g | 0.58 ± 0.11% | EMg [1, 4]: 0.80 ± 0.19 ug/hr · g; FECa (fractional excretion of Ca++) [1, 7]: 0.09 ± 0.01 %; PCa (plasma Ca++ concentration) [1, 7]: 11.15 ± 0.21 mg/dL; FEMg (fractional excretion of Mg++) [1, 8]: 14.88 ± 2.63%; PCa (plasma Ca++ concentration) [1, 8]: 10.63 ± 0.43 mg/dL; PMg (plasma Mg++ concentration) [1, 8]: 2.37 ± 0.09 mg/dL; ECa [1, 9]: 0.25 ± 0.09 ug/hr · g; EMg [1, 9]: 1.02 ± 0.12 ug/hr · g; FECa (fractional excretion of Ca++) [1, 9]: 0.74 ± 0.26%; FEMg (fractional excretion of Mg++) [1, 9]: 10.71 ± 2.16%; PCa (plasma Ca++ concentration) [1, 9]: 10.22 ± 0.30 mg/dL; PMg (plasma Mg++ concentration) [1, 9]: 2.88 ± 0.12 mg/dL; pri-miR-9-3 level, change (pri-miR-9-3): Neither pri-miR-9-2 (FIG. 12B) nor pri-miR-9-3 level (FIG. 12C) was significantly altered; also recorded: Neither pri-miR-9-2 (FIG. 29B) nor pri-miR-9-3 level (FIG. 29C) was significantly altered
C[C@@H](NCCCc1cccc(C(F)(F)F)c1)c1cccc2ccccc12 [cinacalcet] | continued to suppress plasma PTH levels | significantly affected | suppressed PTH levels | intact PTH response | profoundly upregulated claudin-14 protein levels in the tight junction | Neither pri-miR-9-2 (FIG. 12B) nor pri-miR-9-3 level (FIG. 12C) was significantly altered; also recorded: Neither pri-miR-9-2 (FIG. 29B) nor pri-miR-9-3 level (FIG. 29C) was significantly altered | 0.79 ± 0.07 ug/hr · g | 1.93 ± 0.20 % | 14.47 ± 1.13% | 8.09 ± 0.32 mg/dL | 1.58 ± 0.04 mg/dL | 1.33 ± 0.13 ug/hr · g | 2.32 ± 0.26 ug/hr · g | 28.14 ± 2.93 % | 1.96 ± 0.04 mg/dL | 3.82±0.52% | 8.44 ± 0.27 mg/dL | 0.22 ± 0.02 ug/hr · g | 1.25 ± 0.09 ug/hr · g | 0.88 ± 0.14% | time to maximal serum concentration after oral administration ([2]; oral): 1.5 to 3 h; half-life of absorbed cinacalcet ([2]; serum): 30 to 40 h; FECa (fractional excretion of Ca++) [1, 10]: 3.82 ± 0.52 %; PCa (plasma Ca++ concentration) [1, 10]: 8.44 ± 0.27 mg/dL; FEMg (fractional excretion of Mg++) [1, 8]: 18.80 ± 1.48%; PCa (plasma Ca++ concentration) [1, 8]: 9.58 ± 0.21 mg/dL; PMg (plasma Mg++ concentration) [1, 8]: 2.44 ± 0.16 mg/dL; ECa [1, 9]: 0.31 ± 0.03 ug/hr · g; EMg [1, 9]: 1.12 ± 0.03 ug/hr · g; FECa (fractional excretion of Ca++) [1, 9]: 1.08 ± 0.26%; FEMg (fractional excretion of Mg++) [1, 9]: 12.35 ± 2.21%; PCa (plasma Ca++ concentration) [1, 9]: 8.47 ± 0.09 mg/dL; PMg (plasma Mg++ concentration) [1, 9]: 2.64 ± 0.10 mg/dL; cinacalcet induced hypercalciuria, level higher than vehicle ([1]; cyclosporine-A pre-treated animals, 2 hrs): 1.93 fold; pri-miR-9-3 level, change (pri-miR-9-3): Neither pri-miR-9-2 (FIG. 12B) nor pri-miR-9-3 level (FIG. 12C) was significantly altered; also recorded: Neither pri-miR-9-2 (FIG. 29B) nor pri-miR-9-3 level (FIG. 29C) was significantly altered
